The values that follow come from US11897851B2, “Heterocyclic GLP-1 agonists” (Gasherbrum Bio, Inc., priority 2021, dated 2024).

This experiment has as its target T1, GLP-1 Receptor (Homo sapiens, UniProt P43220).
T1 construct: host or cells: HEK293/GLP1R/CRE-LUC (HEK293/CRE-Luc stably expressing the GLP-1 receptor)
The experiment can be described thus: GLP-1R agonist cAMP stimulation assay (HEK293/GLP1R/CRE-LUC cells, Cisbio cAMP dynamic 2 kit).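 Note: compounds tested in half-log serial dilution, cAMP detected with cAMP-d2 and anti-cAMP cryptate antibody reagents after 1 h at room temperature.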 The format is cell-based. The note with it: HEK293/CRE-Luc cell line stably expressing the GLP-1 Receptor; 1000 cells/well; 30 min at 37° C.; 0.5 mM IBMX, 0.1% BSA; read-out: GLP1R cAMP Stimulation DR: EC50.

T1 sequence (P43220 24-463, species assumed): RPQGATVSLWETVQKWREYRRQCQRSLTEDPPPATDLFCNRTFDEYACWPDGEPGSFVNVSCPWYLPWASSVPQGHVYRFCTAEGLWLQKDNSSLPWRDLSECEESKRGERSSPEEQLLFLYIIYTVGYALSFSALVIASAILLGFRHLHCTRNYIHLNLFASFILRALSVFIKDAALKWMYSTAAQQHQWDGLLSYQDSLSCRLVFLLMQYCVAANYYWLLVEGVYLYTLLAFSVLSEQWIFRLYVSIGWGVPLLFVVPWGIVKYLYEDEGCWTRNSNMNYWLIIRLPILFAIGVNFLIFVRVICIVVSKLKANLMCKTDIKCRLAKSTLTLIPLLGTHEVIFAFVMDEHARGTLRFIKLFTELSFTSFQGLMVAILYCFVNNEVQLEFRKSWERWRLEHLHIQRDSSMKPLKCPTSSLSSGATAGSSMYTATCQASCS

`CCn1cncc1Cn1c(/C=C(\C)C(=O)O)cnc1CN1CCC(c2cccc3c2OC(C)(c2ccc(Cl)cc2F)O3)CC1` (stereo not drawn) [Compound 138, (E)-3-(2-((4-(2-(4-chloro-2-fluorophenyl)-2-methylbenzo[d][1,3]dioxol-4-yl)piperidin-1-yl)methyl)-1-((1-ethyl-1H-imidazol-5-yl)methyl)-1H-imidazol-5-yl)-2-methylacrylic acid]: the EC50 is 0.0034 nM.

In the case of `CCn1cncc1Cn1c(/C=C(\C)C(=O)O)cnc1CN1CCC(c2cccc3c2O[C@@](C)(c2ccc(Cl)cc2F)O3)CC1` [Compound 138a, (S,E)-3-(2-((4-(2-(4-chloro-2-fluorophenyl)-2-methylbenzo[d][1,3]dioxol-4-yl)piperidin-1-yl)methyl)-1-((1-ethyl-1H-imidazol-5-yl)methyl)-1H-imidazol-5-yl)-2-methylacrylic acid], the EC50 is 0.0023 nM. As to `CCn1cncc1Cn1c(/C=C(\C)C(=O)O)cnc1CN1CCC(c2cccc3c2O[C@](C)(c2ccc(Cl)cc2F)O3)CC1` [Compound 138b, (R,E)-3-(2-((4-(2-(4-chloro-2-fluorophenyl)-2-methylbenzo[d][1,3]dioxol-4-yl)piperidin-1-yl)methyl)-1-((1-ethyl-1H-imidazol-5-yl)methyl)-1H-imidazol-5-yl)-2-methylacrylic acid], the EC50 came to 0.66 nM. Take `CCn1cncc1Cn1c(/C=C/C(=O)O)cnc1CN1CCC(c2cccc3c2O[C@@](C)(c2ccc(Cl)cc2F)O3)CC1` [Compound 139a, (S,E)-3-(2-((4-(2-(4-chloro-2-fluorophenyl)-2-methylbenzo[d][1,3]dioxol-4-yl)piperidin-1-yl)methyl)-1-((1-ethyl-1H-imidazol-5-yl)methyl)-1H-imidazol-5-yl)acrylic acid]: the EC50 was 0.0012 nM. To `CCn1cncc1Cn1c(/C=C/C(=O)O)cnc1CN1CCC(c2cccc3c2O[C@](C)(c2ccc(Cl)cc2F)O3)CC1` [Compound 139b, (R,E)-3-(2-((4-(2-(4-chloro-2-fluorophenyl)-2-methylbenzo[d][1,3]dioxol-4-yl)piperidin-1-yl)methyl)-1-((1-ethyl-1H-imidazol-5-yl)methyl)-1H-imidazol-5-4)acrylic acid] belongs 0.2 nM; to `CC1(c2ccc(Cl)cc2F)Oc2cccc(C3CCN(Cc4ncc(/C=C/C(=O)O)n4C[C@@H]4CCCO4)CC3)c2O1` (stereo partly drawn) [Compound 140a, (E)-3-(2-((4-(2-(4-chloro-2-fluorophenyl)-2-methylbenzo[d][1,3]dioxol-4-yl)piperidin-1-yl)methyl)-1-(((S)-tetrahydrofuran-2-yl)methyl)-1H-imidazol-5-yl)acrylic acid], 0.09 nM.

Regarding `COCCn1c(/C=C/C(=O)O)cnc1CN1CCC(c2cccc3c2OC(C)(c2ccc(Cl)cc2F)O3)CC1` (stereo not drawn) [Compound 141, (E)-3-(2-((4-(2-(4-chloro-2-fluorophenyl)-2-methylbenzo[d][1,3]dioxol-4-yl)piperidin-1-yl)methyl)-1-(2-methoxyethyl)-1H-imidazol-5-yl)acrylic acid], the EC50 was found to be 0.012 nM. With `CCn1cncc1Cn1c(/C=C/C(=O)O)nnc1CN1CCC(c2cccc3c2OC(C)(c2ccc(Cl)cc2F)O3)CC1` (stereo not drawn) [Compound 142, (E)-3-(5-((4-(2-(4-chloro-2-fluorophenyl)-2-methylbenzo[d][1,3]dioxol-4-yl)piperidin-1-yl)methyl)-4-((1-ethyl-1H-imidazol-5-yl)methyl)-4H-1,2,4-triazol-3-yl)acrylic acid], the EC50 was determined as 0.012 nM.

With `CCn1cncc1Cn1c(CCC(=O)O)cnc1CN1CCC(c2cccc3c2OC(C)(c2ccc(Cl)cc2F)O3)CC1` (stereo not drawn) [Compound 143, 3-(2-((4-(2-(4-chloro-2-fluorophenyl)-2-methylbenzo[d][1,3]dioxol-4-yl)piperidin-1-yl)methyl)-1-((1-ethyl-1H-imidazol-5-yl)methyl)-1H-imidazol-5-yl)propanoic acid], the EC50 is 0.0059 nM.

As usually defined, the EC50 is the midpoint of the concentration-response curve.
